The structures appear in SMILES notation.

The record followed here is publication PMC4667193 (Scientific Reports, 2015).

Data set [1] relates to rat primary hippocampal cell culture. The experiment in a line: MTT viability assay, AEME-induced neurotoxicity. The format is cell-based. The following applies: 10 nM antagonist/inhibitor added 30 minutes prior to 10^−3 M AEME, 24 hours, % of control. The method, then: Neuronal viability was evaluated in the hippocampal cell culture using the 3-(4,5-dimethylthiazol-2-yl)-2,5-diphenyltetrazolium bromide (MTT; Sigma) reduction assay, with some modification. Briefly, after 24 hours of incubation with 10^−3 M AEME in the absence and in the presence of 10 nM pirenzepine hydrochloride (M1 selective antagonist; Sigma), 10 nM p-F-HHSiD (M3 selective antagonist; Sigma) and the specific inhibitor of different isoforms of PLC U73122 (10 nM)[55] (Sigma), all the medium was removed, and 100 μL of MTT solution, containing 5 mg/mL MTT in PBS and neurobasal medium without phenol red (1:9, v/v) were added. After 3 hours of incubation with MTT at 37 °C in a humidified atmosphere of 5% CO2, the MTT solution was removed and 200 μL of dimethyl sulfoxide was added to each well. After 30 minutes of shaking, the absorbance was measured at 570 nm in a multiwell plate reader (BioTek Synergy H1 Hybrid Reader). Potassium chloride (250 mM) was used as a positive control of neuronal death. Muscarinic antagonists, as well as the iPLC, were added 30 minutes prior to incubation with AEME. The antagonist concentration used was near the pKi[25][56]. A control containing 0.002% DMSO was used, since the iPLC stock solution was previously dissolved in this solvent. The assay was performed in quadruplicate, and the results were expressed as a percentage of the control value.
A general note: Tetrazolium dyes change colour on reduction, which living cells bring about.

Data set [2] shares this test system. The experiment in a line: total [^3H]inositol phosphate accumulation in hippocampal cells. The format is cell-based. The following applies: 10^−8 to 10^−3 M. On the procedure:
Hippocampal cells (1 × 10^6 cells/well) were allowed to equilibrate for 10 minutes with a nutrient solution of the following composition (mM): NaCl 157.00; KCl 5.60; CaCl2 0.27; MgCl2 3.00; NaHCO3 1.80; glucose 5.50 (pH 7.0–7.2) at 37 °C under constant shaking. Cells were incubated with 5 μCi of myo[^3H]inositol (specific activity 18.0 Ci/mmol) for 80 minutes, and lithium chloride (10 mM) for additional 30 minutes. Afterwards, the cells were incubated in the absence (basal level) and in the presence of carbachol (positive control) and AEME (10^−8 to 10^−3 M) for 10 minutes. Cells were removed from the plate using a 0.1 M NaOH solution and washed three times with nutrient solution, transferred to 2 mL of methanol:chloroform (2:1 v-v) at 4 °C and homogenized with a Ultra-Turrax T25 homogenizer at 9500 rpm. Chloroform (0.62 mL) and H2O (0.93 mL) were added to the homogenate, and the solution was centrifuged for 5 minutes at 1,000× g to separate aqueous and organic phases. Total [^3H]inositol phosphate was measured as previously described by Ascoli et al.[45] with slight modification. The aqueous layer was neutralized with 0.1 M HCl and then mixed with 1 mL anion-exchange resin (Dowex AG-X8, formate form, 200–400 mesh), allowed to equilibrate for 30 minutes at room temperature, under agitation, and centrifugated at 1,000× g, for 5 minutes at 4 °C. The resin was then washed sequentially, with 10 mM myo-inositol (2 mL) and 5 mM sodium tetraborate/60 mM sodium formate (2 mL). The resin was incubated for 30 minutes at room temperature with 2 mL of 0.1 M formic acid/1 M ammonium formate). The total [^3H]inositol phosphate was eluted and placed in scintillation vials containing OptiPhase HiSafe 3. The amount of radioactivity was determined in scintillation β-counter (LS 6500 IC, Beckman). Total [^3H]inositol phosphate was expressed as percentage above basal level.

As to `COc1ccc2c(c1)CC[C@@H]1[C@@H]2CC[C@]2(C)[C@@H](NCCCCCCN3C(=O)C=CC3=O)CC[C@@H]12` [U73122], in data set [1], the viable cells is recorded as 102.6%.

Take `C[N+](C)(C)CCOC(N)=O` [carbachol, reference compound]: in data set [2], the “effect on total [^3H]inositol phosphate” value is on record as “concentration-dependent increase”. In data set [2] (10 minutes), the “concentration giving maximum inositol phosphate accumulation” value is 10^−5 M.

Turning to `Cl.O[Si](CCCN1CCCCC1)(c1ccc(F)cc1)C1CCCCC1` (centres unmarked) [p-F-HHSiD, p-fluorohexahydro-sila-difenidol hydrochloride], in data set [1], the viable cells was determined as 85.4%.

As to `CN1CCN(CC(=O)N2c3ccccc3C(=O)Nc3cccnc32)CC1` [pirenzepine], the viable cells in data set [1] is 98.4%.
